Experiments:
Settings in all cases: banded MIC grade
Aspergillus fumigatus = test: Minimum inhibitory concentration, YAG medium; assay type: cell-based
Method in brief: (§1)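 MICs (mg/L) reflect >70% inhibition of OD485 growth versus untreated control after 24 hrs at 35° C in YAG medium, spore inoculum 1-2×10^4 cfu/mL, drug range 50-0.05 mg/L.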

A. terreus 49 [1] = test: Minimum inhibitory concentration, YAG medium; assay type: cell-based, Aspergillus terreus
Method in brief: (§2)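 Compound from a 5 mg/mL DMSO stock was further diluted in sterile water, then serially doubled in water and plated with Aspergillus spp. spores. After 24 hrs at 35° C, growth was monitored by optical density at 485 nm; MICs are given in mg/L.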

A. fumigatus = test: Minimum inhibitory concentration, RPMI medium; assay type: cell-based
Experimental: (§3) Between 1 and 5 mgs of compound were accurately weighed out into a sterile Eppendorf tube. The compound was dissolved in DMSO to give a solution containing 5 mg/mL. Tubes were stored at −20° C. until required.
(§4) On the day of testing thawed solutions were vortex mixed to ensure homogeneity. 30 μL of solution was removed and added to 570 μL of sterile water in a separate sterile Eppendorf. The thoroughly mixed solution was used to prepare a series of doubling dilutions in water, in a deep well plate. Thirteen replicate plates were prepared using a Minitrak by aspirating 20 μL from each well into eleven clear polystyrene 96 well plates.
(§5) Assays were also performed in RPMI medium (Roswell Park Memorial Media 1640). To perform MIC tests in this medium, dilutions of compounds are prepared in microtitre plates as described above. Fungal strains to be tested are grown and harvested in an identical manner to that described above, and each organism suspension was diluted in RPMI medium, typically containing 2% glucose and 0.135 M MOPS buffer (pH 7.0) to 0.5-2×10^4cfu/mL, rather than in YAG medium. 80 μL of an organism suspension was added to each well of the plate containing drug dilutions.
(§6) This produced MIC plates with a drug range 50-0.05 mg/L and organism inocula of 1-2×10^4 cfu/mL. All plates were incubated for 24-48 hrs at 35° C. Growth was assessed by monitoring the optical density at 485 nm for each well. The MIC of a compound is the lowest drug concentration that inhibits growth of an organism by >80% compared with a drug free control. The following organisms were tested: C. albicans, C. parapsilosis, C. tropicalis, C. glabrata, C. krusei, A. niger, A. fumigatus, A. terreus, A. flavus, A. terreus 49, and A. fumigatus 210.

A. fumigatus 210 [2] = test: Minimum inhibitory concentration, RPMI medium; assay type: cell-based
Experimental: as §3, §4, §5, §6

A. fumigatus 210 [3] = test: Minimum inhibitory concentration, YAG medium; assay type: cell-based, Aspergillus fumigatus
Method in brief: as §1

Aspergillus terreus = test: Minimum inhibitory concentration, YAG medium; assay type: cell-based
Method in brief: as §2

Aspergillus flavus = test: Minimum inhibitory concentration, YAG medium; assay type: cell-based
Method in brief: as §2

Aspergillus niger = test: Minimum inhibitory concentration, YAG medium; assay type: cell-based
Method in brief: as §2

C. glabrata = test: Minimum inhibitory concentration, RPMI medium; assay type: cell-based
Method in brief: (§7)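 Compound stock was made at 5 mg/mL in DMSO, diluted in sterile water and serially doubled in water, then tested in RPMI 1640 medium. Plates were incubated 24-48 hrs at 35° C, and growth was scored as optical density at 485 nm.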

C. krusei = test: Minimum inhibitory concentration, RPMI medium; assay type: cell-based
Method in brief: as §7

C. albicans = test: Minimum inhibitory concentration, RPMI medium; assay type: cell-based
Method in brief: as §7

A. niger = test: Minimum inhibitory concentration, RPMI medium; assay type: cell-based
Method in brief: as §7

A. terreus = test: Minimum inhibitory concentration, RPMI medium; assay type: cell-based
Method in brief: as §7

A. flavus = test: Minimum inhibitory concentration, RPMI medium; assay type: cell-based
Method in brief: as §7

C. tropicalis = test: Minimum inhibitory concentration, RPMI medium; assay type: cell-based
Method in brief: as §7

A. terreus 49 [4] = test: Minimum inhibitory concentration, RPMI medium; assay type: cell-based
Method in brief: as §7

C. parapsilosis = test: Minimum inhibitory concentration, RPMI medium; assay type: cell-based
Method in brief: as §7

CCCCc1cccc(COCCCCC2=NN=C(N)SC2)c1
2 (2: 1-5 mg/L): MIC grade, A. TERREUS 49, YAG media (A. terreus 49 [1]) | MIC grade, A. TERREUS, YAG media (Aspergillus terreus)
2 (2: 5-20 mg/L): MIC grade, A. FUMIGATUS, RPMI media (A. fumigatus) | MIC grade, C. KRUSEI, RPMI media (C. krusei) | MIC grade, C. ALBICANS, RPMI media (C. albicans) | MIC grade, A. NIGER, RPMI media (A. niger) | MIC grade, A. TERREUS, RPMI media (A. terreus) | MIC grade, A. FLAVUS, RPMI media (A. flavus) | MIC grade, C. TROPICALIS, RPMI media (C. tropicalis) | MIC grade, A. TERREUS 49, RPMI media (A. terreus 49 [4]) | MIC grade, C. PARAPSILOSIS, RPMI media (C. parapsilosis)
3 (3: 0.2-1 mg/L): MIC grade, A. FLAVUS, YAG media (Aspergillus flavus) | MIC grade, A. NIGER, YAG media (Aspergillus niger)
1 (1: ≥5 mg/L): MIC grade, A. FUMIGATUS, YAG media (Aspergillus fumigatus) | MIC grade, A. FUMIGATUS 210, YAG media (A. fumigatus 210 [3])
1 (1: ≥20 mg/L): MIC grade, A. FUMIGATUS 210, RPMI media (A. fumigatus 210 [2]) | MIC grade, C. GLABRATA, RPMI media (C. glabrata)

Cc1cccc(COCCCCC2=NN=C(N)SC2)c1
3 (3: 1-5 mg/L): MIC grade, A. FUMIGATUS, RPMI media (A. fumigatus) | MIC grade, C. KRUSEI, RPMI media (C. krusei) | MIC grade, C. ALBICANS, RPMI media (C. albicans) | MIC grade, A. FLAVUS, RPMI media (A. flavus) | MIC grade, C. TROPICALIS, RPMI media (C. tropicalis) | MIC grade, C. PARAPSILOSIS, RPMI media (C. parapsilosis)
3 (3: 0.2-1 mg/L): MIC grade, A. FUMIGATUS, YAG media (Aspergillus fumigatus) | MIC grade, A. TERREUS 49, YAG media (A. terreus 49 [1]) | MIC grade, A. FUMIGATUS 210, YAG media (A. fumigatus 210 [3]) | MIC grade, A. TERREUS, YAG media (Aspergillus terreus) | MIC grade, A. FLAVUS, YAG media (Aspergillus flavus) | MIC grade, A. NIGER, YAG media (Aspergillus niger)
2 (2: 5-20 mg/L): MIC grade, A. FUMIGATUS 210, RPMI media (A. fumigatus 210 [2]) | MIC grade, C. GLABRATA, RPMI media (C. glabrata) | MIC grade, A. NIGER, RPMI media (A. niger) | MIC grade, A. TERREUS, RPMI media (A. terreus) | MIC grade, A. TERREUS 49, RPMI media (A. terreus 49 [4])

Cc1ccc(OCCC2=NN=C(N)SC2)cc1
4 (4: <1 mg/L): MIC grade, C. PARAPSILOSIS, RPMI media (C. parapsilosis)
1 (1: ≥20 mg/L): MIC grade, C. ALBICANS, RPMI media (C. albicans)
4 (4: <0.2 mg/L): MIC grade, A. FUMIGATUS 210, YAG media (A. fumigatus 210 [3])
2 (2: 5-20 mg/L): MIC grade, C. TROPICALIS, RPMI media (C. tropicalis)
3 (3: 0.2-1 mg/L): MIC grade, A. FUMIGATUS, YAG media (Aspergillus fumigatus) | MIC grade, A. TERREUS 49, YAG media (A. terreus 49 [1]) | MIC grade, A. TERREUS, YAG media (Aspergillus terreus) | MIC grade, A. FLAVUS, YAG media (Aspergillus flavus) | MIC grade, A. NIGER, YAG media (Aspergillus niger)

NC1=NN=C(c2ccc(Cl)cc2)CS1
3 (3: 0.2-1 mg/L): MIC grade, A. FUMIGATUS, YAG media (Aspergillus fumigatus) | MIC grade, A. TERREUS 49, YAG media (A. terreus 49 [1]) | MIC grade, A. TERREUS, YAG media (Aspergillus terreus) | MIC grade, A. FLAVUS, YAG media (Aspergillus flavus)
1 (1: ≥20 mg/L): MIC grade, C. ALBICANS, RPMI media (C. albicans) | MIC grade, C. TROPICALIS, RPMI media (C. tropicalis) | MIC grade, C. PARAPSILOSIS, RPMI media (C. parapsilosis)
2 (2: 1-5 mg/L): MIC grade, A. FUMIGATUS 210, YAG media (A. fumigatus 210 [3]) | MIC grade, A. NIGER, YAG media (Aspergillus niger)

— patent US20180201592A1, “2-AMINO-1,3,4-THIADIAZINE AND 2-AMINO-1,3,4-OXADIAZINE BASED ANTIFUNGAL AGENTS” (F2G Limited, priority 2015, published 2018)
